# Test results as given in patent US11786555B2, “RAR selective agonists in combination with immune modulators for cancer immunotherapy” (IO THERAPEUTICS, INC., priority 2017, dated 2023).
# Experiments:
# RARβ = target: T1, RARβ (Homo sapiens, UniProt P10826); assay: displacement assay, agonist binding affinity; details: read-out: Binding Affinities for RARβ
# T1 construct: cloned receptor RAR molecules are first loaded with radiolabeled all-trans-retinoic acid
# T1 sequence (P10826 1-455): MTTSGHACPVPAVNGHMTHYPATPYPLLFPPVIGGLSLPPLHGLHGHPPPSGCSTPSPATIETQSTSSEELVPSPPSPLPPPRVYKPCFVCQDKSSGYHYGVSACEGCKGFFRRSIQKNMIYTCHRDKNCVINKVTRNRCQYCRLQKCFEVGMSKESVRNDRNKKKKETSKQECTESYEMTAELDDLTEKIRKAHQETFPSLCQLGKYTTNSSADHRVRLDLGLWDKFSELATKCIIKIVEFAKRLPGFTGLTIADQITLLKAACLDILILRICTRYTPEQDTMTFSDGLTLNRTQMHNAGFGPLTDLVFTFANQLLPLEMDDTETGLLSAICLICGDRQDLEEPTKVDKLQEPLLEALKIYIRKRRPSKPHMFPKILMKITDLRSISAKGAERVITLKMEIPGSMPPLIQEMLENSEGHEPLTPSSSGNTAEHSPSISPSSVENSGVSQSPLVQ
# Protocol: (§1) Binding assays are performed using a classic competition assay format in which cloned receptor RAR molecules are first loaded with radiolabeled all-trans-retinoic acid […] and then the amount of radioactivity liberated with increasing concentration of test compound is measured.
# RARγ = target: T2, RARγ (Homo sapiens, UniProt P13631); assay: displacement assay, agonist binding affinity; details: read-out: Binding Affinities for RARγ
# T2 sequence (P13631 1-454): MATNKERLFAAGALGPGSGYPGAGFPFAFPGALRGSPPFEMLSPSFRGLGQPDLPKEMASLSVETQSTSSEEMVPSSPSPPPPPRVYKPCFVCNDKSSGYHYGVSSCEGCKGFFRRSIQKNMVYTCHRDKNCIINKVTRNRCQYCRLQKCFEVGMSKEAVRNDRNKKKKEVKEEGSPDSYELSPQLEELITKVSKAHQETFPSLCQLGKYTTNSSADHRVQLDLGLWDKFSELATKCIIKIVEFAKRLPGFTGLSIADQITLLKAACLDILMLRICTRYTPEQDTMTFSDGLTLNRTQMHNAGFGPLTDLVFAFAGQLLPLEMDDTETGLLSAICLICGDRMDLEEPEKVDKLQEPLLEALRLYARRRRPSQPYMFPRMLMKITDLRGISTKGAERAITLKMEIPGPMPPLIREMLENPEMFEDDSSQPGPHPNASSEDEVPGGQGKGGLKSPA
# Protocol: as §1
# [1] = test system: H929 cells and CD138+ primary MM cells; assay: qRT-PCR of B cell and PC markers in MM cells, liquid or BM stroma co-culture; type: cell-based, human
# Protocol: FIG. 3A-H depicts the relative concentration of plasma markers BCL6 (FIG. 3A and E), BLIMP-1 (FIG. 3B and F), XBPS-1 (FIG. 3C and G), and CHOP (FIG. 3D and H) in multiple myeloma (MM) cell lines H929 (FIG. 3A-D) or CD138+ MM cells from three different patient samples (FIG. 3E-H) incubated for 5 days either in the absence of stroma (Liquid), with or without AGN (RA receptor antagonist AGN194310, 1 μM), or co-cultured with BM mesenchymal cells (Stroma), with or without R115 (CYP26 inhibitor R115866, 1 μM) or IRX (CYP26-resistant retinoid IRX5183, 1 μM). Expression in untreated liquid conditions was set at 1. Data are representative of 3 independent experiments with similar results and represent the mean ±SEM. *P≤0.05 and **P≤0.01, by repeated-measures 1-way ANOVA for determination of statistical significance between groups; P values were corrected for multiple comparisons using Dunnett's test. Ctrl, control; max, maximum.
# Coculture experiments. 24-well plates were coated with 0.1% gelatin in PBS for 30 min at 37° C. The gelatin solution was removed, and the stromal cells were cultured overnight at a density of 5×10^4 cells/well to obtain a confluent monolayer. At that time, MM cell lines or primary MM cells (1×10^5 in 2 ml) were added to the stroma cultures. The stroma cocultures were incubated at 37° C. in RPMI containing 10% FCS, L-glutamine, and P/S, with or without AGN194310 (1 μM for 5 days), R115866 (1 μM for 5 days), IRX5183 (1 μM for 5 days), or BTZ (2.5 nM for 48 hr).
# qRT-PCR. Total RNA was extracted using the RNeasy Mini Kit (QIAGEN) according to the manufacturer's instructions. cDNA was synthesized by reverse transcription using the iScript cDNA Synthesis Kit (Bio-Rad). qRT-PCR was performed with iTaq SYBR Green Supermix (Bio-Rad) using sequence specific primers. Gene expression was normalized to GAPDH, and relative quantification was calculated using ΔΔCt. All experiments were performed in duplicate and run on the Bio-Rad CFX96 machine.
# The BM microenvironment (also called “niche”) limits PC differentiation by modulating retinoid signaling. A population of MM progenitors, phenotypically similar to B cells, is intrinsically resistant to BTZ and contributes to MRD and relapse. To investigate whether the BM niche plays a role in determining the phenotype of MM cells, the mRNA expression of B cell and PC markers in MM H929 cell lines (FIG. 3A-D) and MM CD138+ primary cells (FIG. 3E-H) was analyzed following co-culture with mouse BM stroma using human-specific primers. […] In contrast, co-culture of MM cells with BM stroma decreased the mRNA expression of B lymphocyte-induced maturation protein 1 (BLIMP1) and spliced X box-binding protein 1 (XBP1s) (FIG. 3B, C, F, G), which are critical mediators of PC differentiation.
# The BM niche regulates hematopoietic stem cell (HSC) differentiation by expressing the retinoid-inactivating enzyme CYP26. CYP26 enzymes were highly expressed in BM mesenchymal cells, while their expression was barely detectable in MM cells. Since retinoid signaling promotes PC differentiation and potentiates Ig secretion, it was determined whether stromal CYP26 is responsible for inducing a B cell phenotype in MM cells. To this end, co-culture conditions were treated with the CYP26 inhibitor R115866 (R115) or the CYP26-resistant RA receptor α-selective (RARα-selective) retinoid IRX5183 (IRX).
smiles,measurement,setting,value
CC1(C)CCC(C)(C)c2c1cc(C(=O)Nc1cc(F)c(C(=O)O)c(F)c1)c(O)c2Cl [IRX5183],Kd,RARβ,> 10 µM
same,Kd,RARγ,> 10 µM
same,expression of differentiation markers by qRT-PCR or flow cytometry,[1]; liquid conditions compared with BM stroma,"induced comparable changes, irrespective of the presence or absence of BM stroma"
same,"mRNA expression of B cell and PC markers (BCL6, BLIMP1, XBP1s, CHOP)","[1]; stroma co-cultures, 1 μM for 5 days",restored all markers to levels comparable to those of liquid control conditions
